Columns and labels:
Type in all cases: cell-based
[1] = system: normal primary human skin fibroblastic cells; experiment: Intracellular content of collagen in fibroblasts (Western blot and ELISA), relative to control; settings: 48 hours; for relative intracellular content of collagen: control group = 100%
Experimental: (§1) The normal primary human skin fibroblastic cells (purchased from ATCC) were cultivated in a Fibroblast Growth Medium. The cells thus provided were used in the following experiments. […]
(§2) The normal primary human skin fibroblastic cells provided by [Preparation Example C] were divided into 37 groups and were respectively cultivated with the following medium for 48 hours: • 1. Group 1: a Fibroblast Growth Medium • 2. Group 2-1 to 2-3: Fibroblast Growth Media containing the pachymic acid (PA) provided by [Preparation Example B] at a concentration of 0.01, 0.1 and 1 μM, respectively; • 3. Group 3-1 to 3-3: Fibroblast Growth Media containing the dehydropachymic acid (DPA) provided by [Preparation Example B] at a concentration of 0.01, 0.1 and 1 μM, respectively; • 4. Group 4-1 to 4-3: Fibroblast Growth Media containing the tumulosic acid (TA) provided by [Preparation Example B] at a concentration of 0.01, 0.1 and 1 μM, respectively; • 5. Group 5-1 to 5-3: Fibroblast Growth Media containing the dehydrotumulosic acid (DTA) provided by [Preparation Example B] at a concentration of 0.01, 0.1 and 1 μM, respectively; • 6. Group 6-1 to 6-3: Fibroblast Growth Media containing the polyporenic acid C (PAC) provided by [Preparation Example B] at a concentration of 0.01, 0.1 and 1 μM, respectively; • 7. Group 7-1 to 7-3: Fibroblast Growth Media containing the 3-epi-dehydrotumulosic acid (EDTA) provided by [Preparation Example B] at a concentration of 0.01, 0.1 and 1 μM, respectively; • 8. Group 8-1 to 8-3: Fibroblast Growth Media containing the dehydrotrametenolic acid (DTTA) provided by [Preparation Example B] at a concentration of 0.01, 0.1 and 1 μM, respectively; • 9. Group 9-1 to 9-3: Fibroblast Growth Media containing the trametenolic acid (TTA) provided by [Preparation Example B] at a concentration of 0.01, 0.1 and 1 μM, respectively; • 10. Group 10-1 to 10-3: Fibroblast Growth Media containing the poricoic acid A (PAA) provided by [Preparation Example B] at a concentration of 0.01, 0.1 and 1 μM, respectively; • 11. Group 11-1 to 11-3: Fibroblast Growth Media containing the dehydroeburicoic acid (DEA) provided by [Preparation Example B] at a concentration of 0.01, 0.1 and 1 μM, respectively; • 12. Group 12-1 to 12-3: Fibroblast Growth Media containing the poricoic acid B (PAB) provided by [Preparation Example B] at a concentration of 0.01, 0.1 and 1 μM, respectively; • 13. Group 13-1 to 13-3: Fibroblast Growth Media containing the eburicoic acid (EA) provided by [Preparation Example B] at a concentration of 0.01, 0.1 and 1 μM, respectively.
Thereafter, the cell medium of each group was collected and concentrated. Then, the intracellular content of collagen was measured and analyzed by Western blot and enzyme-linked immunosorbent assay (ELISA).

[2] = system: normal primary human skin fibroblastic cells; experiment: Content of hyaluronic acid in cell medium of fibroblasts (Western blot and ELISA), relative to control; settings: 48 hours; for relative content of hyaluronic acid in the medium (extracellular content of hyaluronic acid): control group = 100%
Experimental: as §1
(§3) Thereafter, the cell medium of each group was collected and concentrated. Then, the intracellular content of collagen, the content of collagen in cell medium (i.e., extracellular content of collagen) and the content of hyaluronic acid in cell medium were measured and analyzed by Western blot and enzyme-linked immunosorbent assay (ELISA).
as §2
The content of hyaluronic acid in the medium of each group (i.e., extracellular content of hyaluronic acid) was provided.

[3] = system: normal primary human skin fibroblastic cells; experiment: Content of collagen in cell medium (extracellular collagen) of fibroblasts (Western blot and ELISA), relative to control; settings: 48 hours; for relative content of collagen in the medium (extracellular content of collagen): control group = 100%; for extracellular contents of collagen (collagen in cell medium) as compared to the control group (in words): treated cells vs control group
Experimental: The normal primary human skin fibroblastic cells (purchased from ATCC) were cultivated in a Fibroblast Growth Medium. The cells thus provided were used in the following experiments.
The normal primary human skin fibroblastic cells provided by [Preparation Example C] were divided into 4 groups and were respectively cultivated with the following medium for 48 hours: • 1. Group I: a Fibroblast Growth Medium; • 2.
as §3, §2
The content of collagen in the medium of each group (i.e., extracellular content of collagen) was provided.

| Compound | relative intracellular content of collagen ([1]; 0.01 μM) | relative intracellular content of collagen ([1]; 0.1 μM) | relative intracellular content of collagen ([1]; 1 μM) | intracellular contents of collagen as compared to the control group (in words) ([1]; treated cells vs control group) | relative content of hyaluronic acid in the medium (extracellular content of hyaluronic acid) ([2]; 0.01 μM) | relative content of hyaluronic acid in the medium (extracellular content of hyaluronic acid) ([2]; 0.1 μM) | relative content of hyaluronic acid in the medium (extracellular content of hyaluronic acid) ([2]; 1 μM) | relative content of collagen in the medium (extracellular content of collagen) ([3]; 0.01 μM) | relative content of collagen in the medium (extracellular content of collagen) ([3]; 0.1 μM) | relative content of collagen in the medium (extracellular content of collagen) ([3]; 1 μM) | extracellular contents of collagen (collagen in cell medium) as compared to the control group (in words) [3] | contents of hyaluronic acid as compared to the control group (in words) ([2]; treated cells vs control group) | contents of hyaluronic acid, ingredients singled out as stronger (in words) ([2]; treated cells vs control group, compared with the other active ingredients) |
| --- | --- | --- | --- | --- | --- | --- | --- | --- | --- | --- | --- | --- | --- |
| CC(C)=CCC[C@@H](C(=O)O)[C@H]1CC[C@@]2(C)C3=CC[C@H]4C(C)(C)[C@@H](O)CC[C@]4(C)C3=CC[C@]12C [Dehydrotrametenolic acid (DTTA), dehydrotrametenolic acid] | 190% | 174% | 118% | significantly enhanced | 99% | 87% | 108% | 117% | 158% | 131% | significantly enhanced |  |  |
| C=C(CC[C@@H](C(=O)O)[C@H]1[C@H](O)C[C@@]2(C)C3=CC[C@H]4C(C)(C)[C@H](O)CC[C@]4(C)C3=CC[C@]12C)C(C)C [3-epi-dehydrotumulosic acid (EDTA), 3-epi-dehydrotumulosic acid] | 87% | 100% | 80% |  | 105% | 122% | 140% | 98% | 104% | 111% | significantly enhanced | significantly enhanced | enhanced more significantly |
| C=C(CC[C@@H](C(=O)O)[C@H]1[C@H](O)C[C@@]2(C)C3=C(CC[C@]12C)[C@@]1(C)CC[C@H](OC(C)=O)C(C)(C)[C@@H]1CC3)C(C)C [Pachymic acid (PA), pachymic acid] | 172% | 235% | 211% |  | 98% | 132% | 140% | 117% | 116% | 106% |  |  |  |
| C=C(C)[C@@H]1CC=C2C(=CC[C@]3(C)[C@@H]([C@@H](CCC=C(C)C)C(=O)O)[C@H](O)C[C@@]23C)[C@@]1(C)CCC(=O)O [Poricoic acid B (PAB), poricoic acid B] | 105% | 108% | 99% |  | 109% | 104% | 84% | 122% | 136% | 153% | significantly enhanced | significantly enhanced |  |
